This is an account of results in patent publication US20110201818A1, “POLO-LIKE KINASE INHIBITORS” (TAKEDA PHARMACEUTICAL COMPANY LIMITED, priority 2007, published 2011).

Each structure is given as a SMILES string. Bounds are passed on as bounds.

T1 sequence (P53350 with tags, fused parts or gaps): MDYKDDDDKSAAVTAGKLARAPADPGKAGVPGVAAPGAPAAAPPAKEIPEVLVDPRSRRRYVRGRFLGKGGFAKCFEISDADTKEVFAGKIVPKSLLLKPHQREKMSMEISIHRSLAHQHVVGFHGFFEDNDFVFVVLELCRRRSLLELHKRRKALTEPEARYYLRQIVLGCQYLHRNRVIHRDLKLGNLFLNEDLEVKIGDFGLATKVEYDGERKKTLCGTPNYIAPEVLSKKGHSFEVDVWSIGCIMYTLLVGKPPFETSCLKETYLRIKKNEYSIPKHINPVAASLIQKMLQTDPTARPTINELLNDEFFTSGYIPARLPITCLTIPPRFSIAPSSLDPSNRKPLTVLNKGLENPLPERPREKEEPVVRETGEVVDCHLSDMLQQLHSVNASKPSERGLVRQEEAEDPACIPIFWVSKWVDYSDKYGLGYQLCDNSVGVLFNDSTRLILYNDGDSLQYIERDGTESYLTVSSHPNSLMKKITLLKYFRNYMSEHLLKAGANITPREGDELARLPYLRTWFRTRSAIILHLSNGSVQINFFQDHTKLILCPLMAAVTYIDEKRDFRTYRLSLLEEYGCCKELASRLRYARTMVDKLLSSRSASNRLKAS

This assay concerns the target T1, human PLK1 (Homo sapiens, UniProt P53350).
T1 construct: FLAG (DYKDDDDK) (N); made in house; host or cells: Sf21 insect cells, recombinant baculovirus (pFASTBAC1, Bac-to-Bac)
Nature of the assay: PLK1 in vitro enzymatic activity assay (phosphorylation of alpha casein by recombinant PLK1). Particulars: recombinant FLAG-tagged PLK1, alpha casein substrate, 500 nmol/L ATP, 40 min at room temperature; read-out: pIC50 (PLK1) (converted). The class given is biochemical. As to the method: PCR was performed using the vector as a template. […] After XbaI and XhoI digestion of the PCR product, the fragment was subcloned into pFASTBAC1 (Invitrogen, USA). Recombinant baculoviruses were prepared according to the procedure of the Bac-to-Bac baculovirus expression system (Invitrogen, USA). Sf21 cells were purchased from Invitrogen and grown in Sf-900 II SFM medium containing 10% fetal bovine serum, 50 μg/mL gentamicin and 0.1% pluronic F-68 (Invitrogen, USA) at 28° C. For preparation of PLK1 enzyme, Sf21 cells were infected with recombinant baculoviruses and cultured at 28° C. for 72 h.
The inhibition of PLK1 by the compounds was determined with the following assay that measures the phosphorylation of alpha casein by recombinant PLK1. Kinase reactions were performed at room temperature for 40 min in the kinase reaction buffer (25 mmol/L HEPES, pH 7.5, 10 mmol/L magnesium acetate, 1 mmol/L dithiothreitol) containing 50 ng PLK1 enzyme, 0.1 μCi [γ-^32P]ATP, 500 nmol/L ATP and 3 μg alpha casein (MP Biomedicals Inc., USA) in a final volume of 50 μL. The incubation was terminated by the addition of 10% trichloroacetic acid (Wako, Japan). Phosphorylated proteins were filtrated in GF/C filter plates (Packard, USA) with a Cell harvester (Packard, USA) and washed out free [γ-^32P]-ATP with 250 mmol/L phosphoric acid. Then, the plates were air dried for 60 min at 45° C., followed by the addition of 20 μL of MicroScint-O (Packard, USA). The radioactivity was counted by a Top-count scintillation counter (Packard, USA).
In the case of `CN1C(=O)C(F)(F)CN(C2CCCC2)c2nc(Nc3cccc4c3OC(F)(F)O4)ncc21` [Compound 136, 9-cyclopentyl-2-(2,2-difluorobenzo[d][1,3]dioxol-4-ylamino)-7,7-difluoro-5-methyl-8,9-dihydro-5H-pyrimido[4,5-b][1,4]diazepin-6(7H)-one], the IC50 was over 2 nM.
In the case of `COc1cc(C(=O)N[C@H]2CN3CCC2CC3)ccc1Nc1ncc2c(n1)N(C1CCCCC1)CC(F)(F)C(=O)N2C` [Compound 45, (R)-4-(9-cyclohexyl-7,7-difluoro-5-methyl-6-oxo-6,7,8,9-tetrahydro-5H-pyrimido[4,5-b][1,4]diazepin-2-ylamino)-3-methoxy-N-(quinuclidin-3-yl)benzamide], the IC50 was at most 2 nM.
Consider `COc1cc(C(=O)NC2CCN(CCO)CC2)c(F)cc1Nc1ncc2c(n1)N(C1CCCC1)CC(F)(F)C(=O)N2C` [Compound 117, 4-(9-Cyclopentyl-7,7-difluoro-5-methyl-6-oxo-6,7,8,9-tetrahydro-5H-pyrimido[4,5-b][1,4]diazepin-2-ylamino)-2-fluoro-N-(1-(2-hydroxyethyl)piperidin-4-yl)-5-methoxybenzamide], for which the IC50 was at most 2 nM.
For `COc1cc(C(=O)O)c(F)cc1Nc1ncc2c(n1)N(C1CCCC1)CC(F)(F)C(=O)N2C` [Compound 31, 4-(9-Cyclopentyl-7,7-difluoro-5-methyl-6-oxo-6,7,8,9-tetrahydro-5H-pyrimido[4,5-b][1,4]diazepin-2-ylamino)-2-fluoro-5-methoxybenzoic acid], the IC50 is at most 2 nM.
As to `COc1cc(C(=O)NC2CN(C(C)C)C2)ccc1Nc1ncc2c(n1)N(C1CCCCC1)CC(F)(F)C(=O)N2C` [Compound 125, 4-(9-cyclohexyl-7,7-difluoro-5-methyl-6-oxo-6,7,8,9-tetrahydro-5H-pyrimido[4,5-b][1,4]diazepin-2-ylamino)-N-(1-isopropylazetidin-3-yl)-3-methoxybenzamide], the IC50 was at most 2 nM.
To `COc1cc(C(=O)NC2CCN(C)CC2)ccc1Nc1ncc2c(n1)N(C1CCCCC1)CC(C)(F)C(=O)N2C` (stereo not shown) [Compound 89, 4-(9-Cyclohexyl-7-fluoro-5,7-dimethyl-6-oxo-6,7,8,9-tetrahydro-5H-pyrimido[4,5-b][1,4]diazepin-2-ylamino)-3-methoxy-N-(1-methylpiperidin-4-yl)benzamide] belongs at most 2 nM.
To `COc1cc(C(=O)N[C@@H]2CCCNC2)ccc1Nc1ncc2c(n1)N(C1CCCC1)CC(F)(F)C(=O)N2C` [Compound 8, (R)-4-(9-cyclopentyl-7,7-difluoro-5-methyl-6-oxo-6,7,8,9-tetrahydro-5H-pyrimido[4,5-b][1,4]diazepin-2-ylamino)-3-methoxy-N-(piperidin-3-yl)benzamide] belongs at most 2 nM.
To `COc1cc(C(=O)NC2CCCNCC2)ccc1Nc1ncc2c(n1)N(C1CCCCC1)CC(F)(F)C(=O)N2C` (stereo not shown) [Compound 42, N-(azepan-4-yl)-4-(9-cyclohexyl-7,7-difluoro-5-methyl-6-oxo-6,7,8,9-tetrahydro-5H-pyrimido[4,5-b][1,4]diazepin-2-ylamino)-3-methoxybenzamide] belongs at most 2 nM; to `COc1cc(C(=O)NCCN2CCCC2)ccc1Nc1ncc2c(n1)N(C1CCCCC1)CC(F)(F)C(=O)N2C` [Compound 56, 4-(9-cyclohexyl-7,7-difluoro-5-methyl-6-oxo-6,7,8,9-tetrahydro-5H-pyrimido[4,5-b][1,4]diazepin-2-ylamino)-3-methoxy-N-(2-(pyrrolidin-1-yl)ethyl)benzamide], over 2 nM.
In the case of `COc1cc(C(=O)NC2CN(C(C)C)C2)c(F)cc1Nc1ncc2c(n1)N(C1CCCC1)CC(F)(F)C(=O)N2C` [Compound 132, 4-(9-cyclopentyl-7,7-difluoro-5-methyl-6-oxo-6,7,8,9-tetrahydro-5H-pyrimido[4,5-b][1,4]diazepin-2-ylamino)-2-fluoro-N-(1-isopropylazetidin-3-yl)-5-methoxybenzamide], the IC50 was at most 2 nM.
